Columns and labels:
[1] = test system: intestinal glycosidases; details: background statement; cited from earlier work
[2] = target: T1, glucosylceramide synthase (GCS) (Mus musculus, UniProt O88693); experiment: GCS activity in living macrophage  cells (C6-NBD lipid, TLC readout); format: cell-based; details: read-out: GCS [nM] (IC50)
T1 construct: IC50 values for GCS activity were measured using living cells; endogenous in cells
T1 sequence (O88693 1-394): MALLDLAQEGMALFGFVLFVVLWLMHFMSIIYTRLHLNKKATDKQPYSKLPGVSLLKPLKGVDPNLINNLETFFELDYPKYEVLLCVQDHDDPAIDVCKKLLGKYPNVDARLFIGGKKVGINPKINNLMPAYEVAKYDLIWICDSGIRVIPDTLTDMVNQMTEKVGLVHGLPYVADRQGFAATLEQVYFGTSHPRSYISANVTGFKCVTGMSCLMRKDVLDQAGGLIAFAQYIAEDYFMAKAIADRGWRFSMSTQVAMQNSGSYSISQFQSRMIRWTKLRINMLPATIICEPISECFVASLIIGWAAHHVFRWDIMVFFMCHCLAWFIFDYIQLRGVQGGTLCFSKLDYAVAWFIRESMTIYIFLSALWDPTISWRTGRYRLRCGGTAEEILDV

[3] = target: T2, GBA1 (Homo sapiens, UniProt P04062, R534H); experiment: GBA1 activity, recombinant human enzyme (Cerezyme), 4-MU-β-glucoside substrate; format: biochemical;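 also: enzyme activity read out as fluorescence of the 4-MU released from the substrate, measured on a fluorimeter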
T2 construct: purchased Sanofi (Cerezyme)
T2 sequence (P04062 40-536 R534H): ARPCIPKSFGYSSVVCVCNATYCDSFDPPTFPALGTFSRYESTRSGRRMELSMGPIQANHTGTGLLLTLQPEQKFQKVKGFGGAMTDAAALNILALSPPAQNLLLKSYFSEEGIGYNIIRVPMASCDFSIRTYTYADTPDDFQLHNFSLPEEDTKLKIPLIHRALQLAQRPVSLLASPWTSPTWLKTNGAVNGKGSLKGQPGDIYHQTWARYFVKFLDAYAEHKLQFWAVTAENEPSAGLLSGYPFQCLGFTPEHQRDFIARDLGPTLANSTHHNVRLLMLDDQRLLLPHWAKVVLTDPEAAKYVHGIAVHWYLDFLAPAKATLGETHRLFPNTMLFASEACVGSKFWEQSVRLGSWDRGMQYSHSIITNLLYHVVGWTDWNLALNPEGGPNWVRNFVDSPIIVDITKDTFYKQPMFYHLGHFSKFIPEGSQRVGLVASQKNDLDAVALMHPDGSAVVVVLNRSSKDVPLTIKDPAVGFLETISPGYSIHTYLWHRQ

[4] = target: T3, GBA2 (Homo sapiens, UniProt Q9HCG7); experiment: GBA2 activity, membrane fraction from Gaucher spleen, 4-MU-β-glucoside substrate; format: biochemical; details: L-ido configuration series, Example 4;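 also: Read-out is fluorimetric quantification of released 4-MU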
T3 construct: measured using a membrane fraction obtained from Gaucher spleen; from tissue; host or cells: membrane fraction of Gaucher spleen, pre-treated with conduritol B-epoxide
T3 sequence (Q9HCG7 1-927): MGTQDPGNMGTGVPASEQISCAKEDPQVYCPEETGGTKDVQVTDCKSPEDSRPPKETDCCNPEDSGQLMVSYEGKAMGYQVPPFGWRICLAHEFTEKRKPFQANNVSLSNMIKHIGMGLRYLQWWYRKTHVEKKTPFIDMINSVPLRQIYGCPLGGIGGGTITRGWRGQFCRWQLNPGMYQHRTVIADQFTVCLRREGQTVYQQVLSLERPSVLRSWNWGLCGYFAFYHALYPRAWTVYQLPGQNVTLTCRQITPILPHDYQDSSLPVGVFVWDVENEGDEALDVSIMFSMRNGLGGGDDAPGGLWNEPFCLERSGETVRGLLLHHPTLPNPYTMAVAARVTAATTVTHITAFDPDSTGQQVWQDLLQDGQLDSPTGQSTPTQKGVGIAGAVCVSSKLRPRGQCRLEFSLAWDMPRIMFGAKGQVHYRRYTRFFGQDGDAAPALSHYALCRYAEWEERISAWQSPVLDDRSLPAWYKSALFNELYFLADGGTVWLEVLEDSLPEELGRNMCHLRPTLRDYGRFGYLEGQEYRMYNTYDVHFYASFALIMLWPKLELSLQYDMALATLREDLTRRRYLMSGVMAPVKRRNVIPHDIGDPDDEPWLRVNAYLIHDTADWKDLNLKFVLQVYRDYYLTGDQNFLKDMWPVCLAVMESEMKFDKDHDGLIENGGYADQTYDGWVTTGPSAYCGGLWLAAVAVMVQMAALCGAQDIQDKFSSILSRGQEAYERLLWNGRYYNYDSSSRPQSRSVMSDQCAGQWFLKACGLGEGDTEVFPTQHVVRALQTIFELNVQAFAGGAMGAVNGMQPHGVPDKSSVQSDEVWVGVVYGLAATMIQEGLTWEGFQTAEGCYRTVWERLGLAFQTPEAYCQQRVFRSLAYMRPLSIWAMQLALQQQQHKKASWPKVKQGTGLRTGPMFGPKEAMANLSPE

Row | IC50 [2] [nM] | IC50 [3] [nM] | IC50 [4] [nM] | Compound | inhibitory activity against the intestinal glycosidases [1]
1 | – | – | – | OC[C@H]1[C@@H](O)[C@H](O)[C@@H](O)CN1CCCCCOCC12CC3CC(CC(C3)C1)C2 [Compound 2, (adamantanemethyloxypentyl)-L-ido-deoxynojirimycin] | little to no inhibitory activity
2 | 25 | 15000 | 3 | OC[C@H]1[C@@H](O)[C@H](O)[C@@H](O)CN1CCCCCOCc1ccccc1-c1ccccc1 [Compound 40] | –
3 | 75 | 20000 | 2 | OC[C@H]1[C@@H](O)[C@H](O)[C@@H](O)CN1CCCCCOCc1cccc(-c2ccccc2)c1 [Compound 41] | –
4 | 15 | 12500 | 2 | OC[C@H]1[C@@H](O)[C@H](O)[C@@H](O)CN1CCCC(F)(F)COCc1ccc(-c2ccccc2)cc1 [Compound 43] | –
5 | 3 | 5000 | 0.1 | OC[C@H]1[C@@H](O)[C@H](O)[C@@H](O)CN1CCCCCOCc1ccc(-c2ccccc2)cc1C(F)(F)F [Compound 44] | –
6 | 3 | 6000 | 0.1 | OC[C@H]1[C@@H](O)[C@H](O)[C@@H](O)CN1CCCCCOCc1ccc(-c2ccccc2)c(C(F)(F)F)c1 [Compound 45] | –
7 | 5 | 8000 | 0.4 | OC[C@H]1[C@@H](O)[C@H](O)[C@@H](O)CN1CCCCCOCc1ccc(-c2ccccc2)cc1F [Compound 46] | –
8 | 2.5 | 6000 | 0.6 | OC[C@H]1[C@@H](O)[C@H](O)[C@@H](O)CN1CCCCCOCc1ccc(-c2ccccc2)c(F)c1 [Compound 47] | –
